Here are results for four compounds from patent publication US8227616B2, “Cyanopyridine antibacterial agents and methods of use thereof” (Wisconsin Alumni Research Foundation, priority 2006, dated 2012).

In brackets after ≈: the same amount, converted by molar mass. Some results are limits rather than exact numbers.

Test [1] has as its system S. aureus ATCC 10390. Description: Estimated MIC, solution-phase microdilution absorbance assay with crude macroarray spot stock solutions. The test is classed as cell-based, Staphylococcus aureus. Particulars: for MIC: Staphylococcus aureus, ATCC10390, 12 h. How it is done:
Spots from a new 69 member chalcone macroarray as well as the three heterocyclic macroarrays prepared earlier were punched out, cleaved, and eluted with acetonitrile. The resulting solutions were concentrated to a residue that was taken up in DMSO to form 2 mM stock solutions.
From the stock solutions, microdilution assays in a 96 well plate starting at 50 μM were performed in quadruplicate. Each well contained 5 μL of the stock solution as well as 195 μL of a S. aureus culture. The turbidity of each well was measured after incubating 12 hours using a standard plate reader. Active compounds can be further diluted and the assay repeated.
To acquire more quantitative antibacterial activity data about our compounds and verify our on-support assay results, we performed solution-phase absorbance assays that provided estimates of the minimum inhibitory concentration (MIC) of each macroarray member against S. aureus. Stock solutions (ca. 2 mM) were generated by cleaving and eluting 198 individual compounds from chalcone (3) and heterocyclic macroarrays (5, 7, and 8). […] The good overall purities of the crude macroarray compounds allowed for reasonable estimations of MICs.
(§1) For estimated MIC determination, DMSO was added to the dried compound residue obtained from a single spot to afford ca. 100 μL of a 2 mM stock solution. Aliquots (5 μL) of these solutions were added to a 96-well plate, followed by 195 μL of diluted S. aureus 10390 (10^6 CFUs/mL) to yield ca. 50 μM final concentrations. The plates were swirled for 1 h to ensure compound dissolution, incubated for 12 h at 37° C., and the absorbance at 595 nm was recorded using a plate reader. […] Actual MIC values were determined for lead compounds resynthesized in solution using an analogous procedure with solutions of known concentration (see).
Preparation of spot samples and controls. An aliquot of DMSO (ca. 100 μL depending on the loading of the parent hydroxyacetophenone) was added to the dried compound residue obtained after TFA cleavage and elution from a single spot. This afforded a 2.0 mM “spot stock” solution for each spot. A small aliquot of each “spot stock” solution was saved for subsequent LC-MS analysis.
For estimated MIC screens, 5.0 μL portions of the “spot stock” solutions were added to the appropriate wells in a sterile, polystyrene 96-well plate to yield ca. 50 μM solutions (dependent on the initial loading of hydroxyacetopheneone and compound purity). To the positive and negative control wells, 5.0 μL of DMSO were added (positive controls contained bacteria but no compound, while negative controls had neither compound nor bacteria). All estimated MIC assays were performed in quadruplicate. Note: the MIC value is defined as the lowest concentration where no bacterial growth occurs.
Representative estimated MIC assay procedure. This assay procedure is based in part on the method reported by Strøm et al.^xiii A 400 μL portion of overnight S. aureus 10390 culture was diluted with 100 mL of sterile LB broth to give ca. 10^6 CFUs per mL. Aliquots (195 μL) of this solution were added to all of the wells in a sterile 96-well plate (except for the negative control wells; 195 μL of sterile LB broth were added to these wells). The plates were placed on an orbital shaker table and gently swirled for 1 h to ensure compound dissolution, and then incubated (without shaking) for 12 h at 37° C. The absorbance at 595 nm was recorded using a plate reader.
The original “spot stock” solutions of these compounds were diluted with DMSO to give ca. 25 and 13 μM final concentrations and tested for inhibitory activities using the procedure described above.

Test [2] relates to S. aureus ATCC 10390. Nature of the test: MIC determination with authentic compounds resynthesized in solution. The test is classed as cell-based, Staphylococcus aureus. The conditions noted are these: Staphylococcus aureus, ATCC10390. Here is the method: as §1
(§2) Dose response growth inhibition curves were determined for each active compound (resynthesized in solution) against S. aureus 10390 (SA) and methicillin-resistant S. aureus 33591 (MRSA). […] MIC assays were performed in quadruplicate.

Test [3] concerns Methicillin-resistant S. aureus ATCC 33591 (MRSA). The description is as above. The test is classed as cell-based. The conditions noted are these: Staphylococcus aureus; Table 3; authentic sample, only trans isomers of chalcones; error reflects step size in the serial dilutions. How it is done: as §1, §2
Test [4] relates to B. subtilis subsp. spizizenii ATCC 6633. Description: MIC determination, species selectivity. Type of test: cell-based. The conditions noted are these: Bacillus subtilis, ATCC6633; authentic sample, only trans isomers of chalcones; error reflects step size. Here is the method: (§3) Each compound from Table 3 was tested for inhibitory activity at 2.5, 5, 7.5, 10, 15, 20, 25, and 30 μM in the susceptible overlaid strains: B. subtilis ATCC 6633, S. epidermidis ATCC 12228, and K. pneumoniae ATCC 4352. MIC assays were run in quadruplicate as described above (with shaking).

The next test deals with K. pneumoniae ATCC 4352. Description: MIC determination, species selectivity. The test is classed as cell-based. Particulars: Klebsiella pneumoniae, ATCC4352; authentic sample, only trans isomers of chalcones; error reflects step size. How it is done:
as §3

The subject of test [5] is S. epidermidis ATCC 12228. Nature of the test: MIC determination, species selectivity. Type of test: cell-based. The conditions noted are these: Staphylococcus epidermidis, ATCC12228; authentic sample, only trans isomers of chalcones; error reflects step size. How it is done: as §3
A further test deals with K. pneumoniae. Description: Agar overlay TTC assay, compound overlays. The conditions noted are these: 30 nanomole aliquots of purified compound on filter paper. Type of test: cell-based, Klebsiella pneumoniae.
For test [6], the system named is S. aureus ATCC 10390. Nature of the test: Kirby-Bauer disk diffusion assay on compound spots from cleaved macroarray. The test is classed as cell-based, Staphylococcus aureus. Particulars: loadings 30 μg/spot, 18 h incubation. How it is done:
While the heterocyclic libraries were being synthesized, the chalcone macroarrays were analyzed using various direct assay techniques such as the Kirby-Bauer disk diffusion assay (FIG. 2E). Bauer, A. W.; Kirby, […].; Turck, M. Technical Bulletin of the Registry of Medical Technologists 1966, 36, 49-52. For this assay, the macroarray members are punched out from the membrane, cleaved from the support with TFA vapor, neutralized with ammonia vapor, and then placed on an agar bed inoculated with S. aureus. After incubating overnight, different diameters of zones of inhibition are measured as a factor of potency as well as solubility in the medium. Ammonia vapor neutralization was key in the disk diffusion assay, otherwise residual TFA vapor created a false positive signature. However, in this method, macroarrays have to be made in triplicate one for a replicate and one for compound characterization. We first evaluated test chalcone macroarrays (3) in antibacterial assays against S. aureus. Because the macroarrays were prepared on cellulose filter paper, we had convenient access to the compounds in disk form for standard disk diffusion assays. Compound spots were punched out of the macroarrays, subjected to vapor phase cleavage with acid (TFA), and neutralized (NH3) to afford disks containing ca. 30 μg of adsorbed compound [8]. These disks were manually placed on lawns of S. aureus, and zones of inhibition were measured after an 18 h incubation period. […] However, this antibacterial assay format had drawbacks: (1) the entire sample of compound was consumed during the assay, and thus replicate arrays needed to be synthesized to confirm activity, and (2) manipulating large numbers of compound disks was relatively labor intensive. Compound spots were cleaved with TFA and neutralized with NH3 as described herein. […] Compound spots were placed onto the agar, the plate was incubated at 37° C. for 18 h, and the diameters of the zones of inhibition were measured. […] Compound spots were subjected to the TFA cleavage conditions described above. The spots were next subjected to NH3 vapor to neutralize any remaining TFA. […] Vials containing the spots (or intact macroarrays) were placed inside a small evaporating dish, and this was placed into the NH4OH solution. The Pyrex dish was covered, and NH3 vapor was allowed to slowly diffuse into the vials. After 1 h, the vials were removed from the NH3 chamber, and the spots were allowed to stand open in a fume hood for at least 15 min to vent prior to analysis in the following assays. This afforded dry, paper disks containing adsorbed compound. […] The plates were removed, and the diameters of the zones of inhibition were measured in mm using a ruler (see FIG. 1A).

Where [7] appears, read: Table 2, serial dilution of stock solutions obtained by SPOT-synthesis, read-out: estimated MIC range.
[8] abbreviates: Table 3, serial dilution of spot stock solutions of crude macroarray compounds, read-out: S. aureus Estimated MIC range.
[9] abbreviates: Table 2, authentic sample synthesized according to standard techniques, read-out: observed MIC.
Where [10] appears, read: Table 3, authentic sample, only trans isomers of chalcones, error reflects step size in the serial dilutions, read-out: S. aureus MIC.

Turning to `O=C(/C=C/c1c(Cl)ccc(Cl)c1Cl)c1cccc(O)c1` [Compound 4Bo, 3′-hydroxy-2,3,6-trichlorochalcone], in the test with S. aureus ATCC 10390 [1] (12.5 μM, macroarray stock solutions diluted four fold), the “inhibition of S. aureus at the 12.5 μM level” value is “complete inhibition”. For the same compound, the MIC in the test on S. aureus ATCC 10390 [1] (setting [7]) is 6.25 to 12.5 µM (≈ 2.05 to 4.09 µg/mL); in the test on S. aureus ATCC 10390 [1] (setting [8]), below 12.5 µM; with S. aureus ATCC 10390 [2] (setting [9]), 6.5 ± 0.5 µM (≈ 2.13 µg/mL); in the test with S. aureus ATCC 10390 [2] (setting [10]), 10 ± 1 µM (≈ 3.28 µg/mL); in test [3] it was 10 ± 1 µM (≈ 3.28 µg/mL); in test [4] it was 8.8 ± 1.2 µM (≈ 2.88 µg/mL). The MIC with K. pneumoniae ATCC 4352 was above 250 µM; in test [5], 12.5 ± 2.5 µM (≈ 4.09 µg/mL). Besides, in the test on K. pneumoniae, the “susceptibility in agar overlay TTC assay” value was “weakly susceptible”.

Take `O=C(/C=C/c1ccc(Cl)cc1Cl)c1ccc(O)cc1` [Compound 4At, 2,4-dichloro-4′-hydroxychalcone]: the MIC was 25 to 50 µM (≈ 7.33 to 14.7 µg/mL) in the test on S. aureus ATCC 10390 [1] (setting [7]); 25 to 50 µM (≈ 7.33 to 14.7 µg/mL) in the test on S. aureus ATCC 10390 [1] (setting [8]); 18.8 ± 1.2 µM (≈ 5.51 µg/mL) in the test on S. aureus ATCC 10390 [2] (setting [9]); 21.2 ± 1.2 µM (≈ 6.21 µg/mL) in the test with S. aureus ATCC 10390 [2] (setting [10]); 18.7 ± 1.2 µM (≈ 5.48 µg/mL) in test [3]; 27.5 ± 2.5 µM (≈ 8.06 µg/mL) in test [4]. For the same compound, the figures for the minimum inhibitory concentration (MIC) (against K. pneumoniae ATCC 4352; in test [5]) were above 250 µM and 27.5 ± 2.5 µM (≈ 8.06 µg/mL), respectively. Also, in the test on K. pneumoniae, the “susceptibility in agar overlay TTC assay” value was “weakly susceptible”.

On to `O=C(/C=C/c1cccc(Br)c1)c1cccc(O)c1` [Compound 4Be, 3-bromo-3′-hydroxychalcone], for which the MIC is 25 to 50 µM (≈ 7.58 to 15.2 µg/mL) in the test on S. aureus ATCC 10390 [1] (setting [7]); 25 to 50 µM (≈ 7.58 to 15.2 µg/mL) with S. aureus ATCC 10390 [1] (setting [8]); 24 ± 2 µM (≈ 7.28 µg/mL) in the test on S. aureus ATCC 10390 [2] (setting [9]); 21 ± 1 µM (≈ 6.37 µg/mL) in the test on S. aureus ATCC 10390 [2] (setting [10]); 20 ± 1 µM (≈ 6.06 µg/mL) in test [3]; 22.5 ± 2.5 µM (≈ 6.82 µg/mL) in test [4]. The MIC against K. pneumoniae ATCC 4352 is 40 ± 10 µM (≈ 12.1 µg/mL); in test [5] it was 22.5 ± 2.5 µM (≈ 6.82 µg/mL). In addition, the “susceptibility in agar overlay TTC assay” value with K. pneumoniae was “weakly susceptible”.

`O=C(/C=C/c1cccc(Cl)c1Cl)c1cccc(O)c1` [Compound 4Bl, 2,3-dichloro-3′-hydroxychalcone] displayed a Zones of inhibition in the test with S. aureus ATCC 10390 [6] of 19 mm. In addition, the MIC in the test with S. aureus ATCC 10390 [1] (setting [7]) is 12.5 to 25 µM (≈ 3.66 to 7.33 µg/mL); in the test on S. aureus ATCC 10390 [1] (setting [8]), 12.5 to 25 µM (≈ 3.66 to 7.33 µg/mL); in the test with S. aureus ATCC 10390 [2] (setting [9]), 13.8 ± 1.2 µM (≈ 4.05 µg/mL); in the test on S. aureus ATCC 10390 [2] (setting [10]) it was 15 ± 0.5 µM (≈ 4.4 µg/mL); in test [3], 15 ± 0.5 µM (≈ 4.4 µg/mL); in test [4], 22.5 ± 2.5 µM (≈ 6.6 µg/mL). Moreover, the MIC against K. pneumoniae ATCC 4352 is above 250 µM; in test [5], 12.5 ± 2.5 µM (≈ 3.66 µg/mL). Further, the “susceptibility in agar overlay TTC assay” value with K. pneumoniae is given as “weakly susceptible”.

For orientation: MIC means the smallest concentration in the dilution series that meets the test's criterion for growth inhibition.
